ChEMBL document CHEMBL1201862, “PubChem BioAssay data set” (2004)
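Five compound concentrations were applied to cells in 96-well plates for 48 hours; endpoints were derived by simple linear interpolation of the resulting dose-response curve. GI50 = concentration required for 50% inhibition of growth.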 The source made the active and inactive calls. No stated cut-off is given here; in the data, active = GI50 up to about 1.1 µM and inactive = higher.

Columns and labels:
Assay in all cases: NCI-60 cell line screen, 48 h
[1] = tested on: KM12
[2] = tested on: 786-0
[3] = tested on: COLO 205
[4] = tested on: NCI-H23
[5] = tested on: SK-MEL-28
[6] = tested on: IGROV-1
[7] = tested on: TK-10
[8] = tested on: MDA-MB-435
[9] = tested on: HOP-92
[10] = tested on: HCC 2998
[11] = tested on: M14
[12] = tested on: SK-MEL-2
[13] = tested on: ACHN
[14] = tested on: OVCAR-4
[15] = tested on: SK-OV-3
[16] = tested on: SW-620
[17] = tested on: SNB-19
[18] = tested on: HOP-62
[19] = tested on: LOX IMVI
[20] = tested on: CCRF-CEM

SMILES | GI50 [1] | GI50 [2] | GI50 [3] | GI50 [4] | GI50 [5] | GI50 [6] | GI50 [7] | GI50 [8] | GI50 [9] | GI50 [10] | GI50 [11] | GI50 [12] | GI50 [13] | GI50 [14] | GI50 [15] | GI50 [16] | GI50 [17] | GI50 [18] | GI50 [19] | GI50 [20]
Nc1ccc(C(=O)NN2C(=O)[C@H](Cl)C2c2ccc(Cl)cc2)cc1 (stereo not given in full) | 1.5 µM (inactive) | 1.32 µM (inactive) | 1.93 µM (inactive) | 0.869 µM (active) | 0.265 µM (active) | 1.65 µM (inactive) | 0.838 µM (active) | 1.84 µM (inactive) | 1.87 µM (inactive) | 1.65 µM (inactive) | 1.58 µM (inactive) | 1.89 µM (inactive) | 0.789 µM (active) | 0.615 µM (active) | 1.88 µM (inactive) | 2.11 µM (inactive) | 1.67 µM (inactive) | 1.77 µM (inactive) | – | –
C=C1c2ccccc2C(=O)c2c1c1c(C(=O)OC)c(O)ccc1n2Cc1ccccc1 | 0.459 µM (active) | 0.197 µM (active) | 1.97 µM (inactive) | 0.713 µM (active) | 0.31 µM (active) | 0.234 µM (active) | 0.459 µM (active) | 0.255 µM (active) | < 0.01 µM (active) | – | 0.314 µM (active) | 0.817 µM (active) | 0.454 µM (active) | 0.558 µM (active) | 0.346 µM (active) | 0.342 µM (active) | 0.35 µM (active) | 0.516 µM (active) | 0.297 µM (active) | 0.203 µM (active)
CC(=O)c1sc2c(c1O)c(=O)n(-c1ccccc1)c(=S)n2-c1ccccc1 | > 100 µM (inactive) | > 100 µM (inactive) | > 100 µM (inactive) | > 100 µM (inactive) | > 100 µM (inactive) | > 100 µM (inactive) | > 100 µM (inactive) | > 100 µM (inactive) | > 100 µM (inactive) | > 100 µM (inactive) | > 100 µM (inactive) | > 100 µM (inactive) | – | > 100 µM (inactive) | – | > 100 µM (inactive) | > 100 µM (inactive) | – | > 100 µM (inactive) | > 10 µM (inactive)
CC(=N/N=C/c1ccccn1)/C(C)=N/N=C(C)/C(C)=N/N=C(C)/C(C)=N/N=C(C)/C(C)=N\N=C\c1ccccn1 | > 100 µM (inactive) | > 100 µM (inactive) | > 100 µM (inactive) | > 100 µM (inactive) | > 100 µM (inactive) | > 100 µM (inactive) | > 100 µM (inactive) | > 100 µM (inactive) | > 100 µM (inactive) | > 100 µM (inactive) | > 100 µM (inactive) | > 100 µM (inactive) | > 100 µM (inactive) | > 100 µM (inactive) | > 100 µM (inactive) | > 100 µM (inactive) | > 100 µM (inactive) | > 100 µM (inactive) | > 100 µM (inactive) | –
NCCC1(N)CCNCC1 | > 100 µM (inactive) | > 100 µM (inactive) | > 100 µM (inactive) | > 100 µM (inactive) | 48.4 µM (inactive) | > 100 µM (inactive) | > 100 µM (inactive) | > 100 µM (inactive) | < 0.01 µM (active) | – | > 100 µM (inactive) | > 100 µM (inactive) | > 100 µM (inactive) | > 100 µM (inactive) | > 100 µM (inactive) | > 100 µM (inactive) | > 100 µM (inactive) | – | – | > 100 µM (inactive)
CN(c1ccc(Cl)cc1)S(=O)(=O)c1cccc([N+](=O)[O-])c1 | 52.6 µM (inactive) | > 100 µM (inactive) | 65 µM (inactive) | 34.7 µM (inactive) | 95.9 µM (inactive) | > 100 µM (inactive) | > 100 µM (inactive) | 34.8 µM (inactive) | – | 79.1 µM (inactive) | 43.4 µM (inactive) | 44.2 µM (inactive) | 99.1 µM (inactive) | > 100 µM (inactive) | > 100 µM (inactive) | 70.5 µM (inactive) | > 100 µM (inactive) | 89.3 µM (inactive) | 41.9 µM (inactive) | 27.5 µM (inactive)
COc1ccc(C2SCC(=O)N2NC(=O)c2ccc(NC(C)=O)cc2)cc1 (stereo not given) | > 100 µM (inactive) | > 100 µM (inactive) | > 100 µM (inactive) | > 100 µM (inactive) | > 100 µM (inactive) | > 100 µM (inactive) | > 100 µM (inactive) | > 100 µM (inactive) | 38 µM (inactive) | > 100 µM (inactive) | > 100 µM (inactive) | > 100 µM (inactive) | > 100 µM (inactive) | > 100 µM (inactive) | > 100 µM (inactive) | > 100 µM (inactive) | > 100 µM (inactive) | > 100 µM (inactive) | – | –
COc1ccc(NCc2c(O)ccc3ccccc23)cc1 | 67.1 µM (inactive) | 16.4 µM (inactive) | 22.8 µM (inactive) | 36.3 µM (inactive) | 27.4 µM (inactive) | 20.4 µM (inactive) | 17.9 µM (inactive) | 42.9 µM (inactive) | 16.1 µM (inactive) | – | 14 µM (inactive) | 64.1 µM (inactive) | 13.4 µM (inactive) | 43.1 µM (inactive) | > 100 µM (inactive) | 21.4 µM (inactive) | > 100 µM (inactive) | 68.2 µM (inactive) | 15.9 µM (inactive) | –
